Test results: patent publication US20170247326A1, “Substituted Pyrrolidine Carboxamide Compounds” (EPIZYME, INC., priority 2014, published 2017)

What follows are molecules tested against T1, SMYD2 (Homo sapiens, UniProt Q9NRG4) (assay: SMYD2 biochemical assay (3H-SAM, biotinylated peptide substrate, Flashplate)). Settings: Table 1; average of n = 1 to n = 50; read-out: SMYD2 Biochem IC50.
T1 construct: Full length SMYD2 (NP_064582.2) was cloned; His6 (N, cleaved yes); FLAG (N); made in house; host or cells: Sf9 insect cells
T1 sequence (Q9NRG4 whole entry): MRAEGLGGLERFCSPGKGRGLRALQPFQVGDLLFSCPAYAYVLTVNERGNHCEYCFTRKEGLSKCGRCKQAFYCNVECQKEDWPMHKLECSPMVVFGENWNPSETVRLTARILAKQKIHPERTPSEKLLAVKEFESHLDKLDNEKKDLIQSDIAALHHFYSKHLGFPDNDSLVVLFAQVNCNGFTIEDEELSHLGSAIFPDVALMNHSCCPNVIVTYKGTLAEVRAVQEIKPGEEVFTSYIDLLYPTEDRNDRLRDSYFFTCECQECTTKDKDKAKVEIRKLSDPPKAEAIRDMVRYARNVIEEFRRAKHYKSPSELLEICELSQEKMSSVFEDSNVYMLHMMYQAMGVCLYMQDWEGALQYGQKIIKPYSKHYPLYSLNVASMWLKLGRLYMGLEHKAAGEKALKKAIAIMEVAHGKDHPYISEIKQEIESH
Excerpt: S-adenosylmethionine (SAM), S-adenosylhomocysteine (SAH), bicine, Tween20, dimethylsulfoxide (DMSO), bovine skin gelatin (BSG), and Tris(2-carboxyethyl)phosphine hydrochloride (TCEP) were purchased from Sigma-Aldrich at the highest level of purity possible. ^3H-SAM was purchase from American Radiolabeled Chemicals with a specific activity of 80 Ci/mmol. 384-well streptavidin Flashplates were purchased from PerkinElmer.
Peptide was synthesized with a N-terminal linker-affinity tag motif and a C-terminal amide cap by 21st Century Biochemicals. The peptide was high high-performance liquid chromatography (HPLC) purified to greater than 95% purity and confirmed by liquid chromatography mass spectrometry (LC-MS). The sequence was […](K-Biot)-amide. (SEQ ID NO: 3)
Full length SMYD2 (NP_064582.2) was cloned into a pFastbac-Htb-lic vector with an N-terminal His6 tag and FLAG tag, preceded by a TEV protease cleavage site. The protein was expressed in Sf9 insect cells. Cells were resuspended in lysis buffer (25 mM HEPES-NaOH, pH 7.5, 200 mM NaCl, 5% glycerol, and 5 mM […] and lysed by sonication. The protein was purified by Ni-NTA (Qiagen), followed by TEV cleavage to remove the His6 tag, subtractive Ni-NTA (Qiagen), and gel filtration chromatography using an S200 column (GE Healthcare). Purified protein was stored in 20 mM Tris-HCl, pH 8.0, 100 mM NaCl, and 1 mM TCEP.
General Procedure for SMYD2 Enzyme Assays on Peptide Substrates
The assays were all performed in a buffer consisting of 20 mM Bicine (pH=7.6), 1 mM TCEP, 0.005% Bovine Skin Gelatin, and 0.002% Tween20, prepared on the day of use. Compounds in 100% DMSO (1 ul) were spotted into a polypropylene 384-well V-bottom plates (Greiner) using a Platemate Plus outfitted with a 384-channel head (Thermo Scientific). DMSO (1 ul) was added to Columns 11, 12, 23, 24, rows A-H for the maximum signal control and 1 ul of SAH, a known product and inhibitor of SMYD2, was added to columns 11, 12, 23, 24, rows I-P for the minimum signal control. A cocktail (40 ul) containing the SMYD2 enzyme was added by Multidrop Combi (Thermo-Fisher). The compounds were allowed to incubate with SMYD2 for 30 min at room temperature, then a cocktail (10 ul) containing ^3H-SAM and peptide was added to initiate the reaction (final volume=51 ul). The final concentrations of the components were as follows: SMYD2 was 1.5 nM, ^3H-SAM was 10 nM, and peptide was 60 nM, SAH in the minimum signal control wells was 1000 uM, and the DMSO concentration was 2%. The assays were stopped by the addition of non-radioactive SAM (10 ul) to a final concentration of 600 uM, which dilutes the ^3H-SAM to a level where its incorporation into the peptide substrate is no longer detectable. 50 ul of the reaction in the 384-well polypropylene plate was then transferred to a 384-well Flashplate and the biotinylated peptides were allowed to bind to the streptavidin surface for at least 1 hour before being washed three times with 0.1% Tween20 in a Biotek ELx405 plate washer. The plates were then read in a PerkinElmer TopCount plate reader to measure the quantity of ^3H-labeled peptide bound to the Flashplate surface, measured as disintegrations per minute (dpm) or alternatively, referred to as counts per minute (cpm).
Where dpm=disintegrations per minute, cmpd=signal in assay well, and min and max are the respective minimum and maximum signal controls.
Where top and bottom are the normally allowed to float, but may be fixed at 100 or 0 respectively in a 3-parameter fit. The Hill Coefficient normally allowed to float but may also be fixed at 1 in a 3-parameter fit. I is the compound concentration.
SMYD2 biochemical assay data for representative Compounds of the Disclosure are presented in Tables 1, 3, and 4 in the column titled “SMYD2 Bicohem IC50 (μM).”

IC50 [µM] | Compound
1.4 | C[C@H]1CN(C2CC2)C[C@H]1NC(=O)c1cn(C2CC2)nn1 (racemic) [compound 19, (±)-cis-1-cyclopropyl-N-(1-cyclopropyl-4-methylpyrrolidin-3-yl)-1H-1,2,3-triazole-4-carboxamide]

Same assay, conditions: Table 3; average of n = 1 to n = 50; read-out: SMYD2 Biochem IC50

Compound | IC50 [µM]
CC(C)N1C[C@H](C)[C@H](NC(=O)c2cc(C3CC3)c[nH]c2=O)C1 (racemic) [compound 82, (±)-cis-5-cyclopropyl-N-[4-methyl-1-(propan-2-yl)pyrrolidin-3-yl]-2-oxo-1,2-dihydropyridine-3-carboxamide] | 13.6
CC(C)N1C[C@H](C)[C@H](NC(=O)c2ccc(C3CC3)[nH]c2=O)C1 (racemic) [compound 83, (±)-cis-6-cyclopropyl-N-[4-methyl-1-(propan-2-yl)pyrrolidin-3-yl]-2-oxo-1,2-dihydropyridine-3-carboxamide] | > 50
C[C@@H]1CN(C2CC2)C[C@H]1NC(=O)c1cccc(N2CCCC2)c1 (racemic) [compound 34, (±)-trans-N-[1-cyclopropyl-4-methylpyrrolidin-3-yl]-3-(pyrrolidin-1-yl)benzamide] | > 50
CC(C)N1C[C@@H](C)[C@H](NC(=O)c2cnc(C3CC3)cn2)C1 (racemic) [compound 52, (±)-trans-5-cyclopropyl-N-[4-methyl-1-(propan-2-yl)pyrrolidin-3-yl]pyrazine-2-carboxamide] | > 50
CC(C)c1cnnc(C(=O)N[C@@H]2CN(C(C)C)C[C@@H]2C)c1 (racemic) [compound 118, (±)-cis-5-isopropyl-N-(1-isopropyl-4-methylpyrrolidin-3-yl)pyridazine-3-carboxamide] | 10.4
CC(C)N1C[C@H](C)[C@H](NC(=O)CCN2CCCC2)C1 (racemic) [compound 56, (±)-cis-N-[4-methyl-1-(propan-2-yl)pyrrolidin-3-yl]-3-(pyrrolidin-1-yl)propanamide] | > 50
CC(C)N1C[C@@H](C)[C@H](NC(=O)c2ccc(N3CCCC3)cc2)C1 (racemic) [compound 33, (±)-trans-N-[4-methyl-1-(propan-2-yl)pyrrolidin-3-yl]-4-(pyrrolidin-1-yl)benzamide] | > 50
CC(C)N1CCC(NC(=O)c2cc(C3CC3)cnn2)C1 (stereo not drawn) [compound 95, 5-cyclopropyl-N-[1-(propan-2-yl)pyrrolidin-3-yl]pyridazine-3-carboxamide] | 6.07

Second part, the molecule after the results:

IC50 [µM] | Compound
> 50 | CC(C)N1C[C@H](C)[C@H](NC(=O)c2cnc(C3CC3)o2)C1 (racemic) [compound 78, (±)-cis-2-cyclopropyl-N-[4-methyl-1-(propan-2-yl)pyrrolidin-3-yl]-1,3-oxazole-5-carboxamide]
> 50 | CC(C)N1C[C@@H](C)[C@@H](NC(=O)c2nc(C3CC3)ns2)C1 (racemic) [compound 86, (±)-cis-3-cyclopropyl-N-[4-methyl-1-(propan-2-yl)pyrrolidin-3-yl]-1,2,4-thiadiazole-5-carboxamide]
> 50 | CC(C)N1C[C@H](C)[C@H](NC(=O)c2ncc(C3CC3)cn2)C1 (racemic) [compound 59, (±)-cis-5-cyclopropyl-N-[4-methyl-1-(propan-2-yl)pyrrolidin-3-yl]pyrimidine-2-carboxamide]
> 50 | CC(C)N1C[C@@H](C)[C@H](NC(=O)c2cc(C3CC3)[nH]n2)C1 (racemic) [compound 62, (±)-trans-5-cyclopropyl-N-[4-methyl-1-(propan-2-yl)pyrrolidin-3-yl]-1H-pyrazole-3-carboxamide]
> 50 | CC(C)N1C[C@H](C)[C@H](NC(=O)c2cnc(C3CC3)cn2)C1 (racemic) [compound 51, (±)-cis-5-cyclopropyl-N-[4-methyl-1-(propan-2-yl)pyrrolidin-3-yl]pyrazine-2-carboxamide]
> 50 | CC(C)N1C[C@H](C)[C@H](NC(=O)c2nsc(C3CC3)n2)C1 (racemic) [compound 88, (±)-cis-5-cyclopropyl-N-[4-methyl-1-(propan-2-yl)pyrrolidin-3-yl]-1,2,4-thiadiazole-3-carboxamide]
